Two compounds from patent US9452185B2, “Mesenchymal stem cells and supports for tissue regeneration, repair and reconstruction” (THE TEXAS A&M UNIVERSITY SYSTEM, priority 2009, dated 2016) can be followed below.

The test system of data set [1] is hMSCs. The data set is described as follows: Microarray of cultured hMSCs after 8 days in osteogenic media (in vitro). Format: cell-based, human. Particulars: for transcript transducin-like enhancer of split-1 / transcripts Klf-6, caldesmon-1, gamma-aminobutyric acid B receptor-2, synaptotagmin like-2 / transcripts fibroblast growth factor-7, high mobility group AT-hook 2, Cdk5 and Abl enzyme substrate-1, amyloid beta precursor protein-binding family B2 / transcripts protocadherin-7, PR domain containing-1, gremlin-1, collectin subfamily member-12, stanniocalcin-2: 8 days, 200/800 nM BIO, 1.0/10 μM GW; for collagens and ECM proteins found in bone tissue (transcripts): vs vehicle control. Here is the method:
Array analysis. Transcriptome arrays were performed using Affimetrix apparatus and HG-U133 Plus 2.0 chips. Cytokine arrays on conditioned media were performed using a human cytokine array and analyzed using a digital imager. Effects of GSK3β and PPARγ inhibition on the transcriptome of hMSCs. […] After 8 days of culture, RNA microarrays were performed on the hMSCs.

The subject of data set [2] is osteoprotegerin (OPG). The data set is described as follows: OPG secretion by ELISA. Format: cell-based, human. The following applies: osteogenic medium lacking dex, 8 days. The procedure: (§1) ELISAs. ELISA for CXCL6, Dkk-1, GROa, GRO13, and OPG were carried out by using nonbiotinylated polyclonal capture antibodies and biotinylated detection antibodies that were commercially acquired on coated 96-well plates The biotinylated […] antibodies were detected by using horseradish peroxidase-conjugated streptavidin and TMB substrate. ELISA for IL-lb were performed by using commercially acquired kits. In order to characterize the influence of 7AIPM on osteogenic differentiation, hMSC's from two donors were cultured as described elsewhere herein with the addition of varying concentrations of the compound or vehicle to the media. Samples of the media were collected daily for analysis. These samples were analyzed for the presence of OPG and Dkk-1 using ELISA. Alkaline phosphatase activity of the monolayers and cell numbers were measured using a spectrophotometer.
(In general: An ELISA detects its analyte on a solid surface through an enzyme-linked reagent.)

Data set [3] relates to Dkk-1. The data set is described as follows: Dkk-1 secretion by ELISA. Format: cell-based, human. Particulars: osteogenic medium lacking dex, 8 days. Here is the method:
as §1

Data set [4] has as its system β-catenin, GSK3β, PPARγ. Kind of data set: Intracellular distribution of β-catenin, GSK3β and PPARγ (immunoblot, fluorescence microscopy). The data set is classed as cell-based, human. Particulars: for GSK3β in the cytoplasm / nuclear β-catenin: MSCs under osteogenic conditions. Here is the method:
Protein extraction, gel electrophoresis and western blotting. Nuclear extracts were performed by Triton extraction and differential centrifugation as previously described (Gregory et al., 2003, J Biol Chem 278:2806728078). Proteins were electrophoresed and blotted onto nitrocellulose using an electrophoresis system. Histochemistry and immunocytochemistry. For β-catenin localization studies, hMSCs were stained with a cy-3 conjugated anti-β-catenin antibody and nuclei were counterstained with pico-green dye. Specimens were processed as paraffin blocks and 8 longitudinal sections were prepared, deparaffinized and rehydrated, then stained with hematoxylin and eosin. For immunocytochemistry, sections were probed with an anti-human β-2-microglobulin antibody. An upright fluorescent microscope fitted with a high performance camera (and image analysis software was employed for imaging.

The subject of data set [5] is hMSCs. The data set is described as follows: hMSC yield, cell cycle analysis and cleaved caspase-3 immunoblot. The data set is classed as cell-based, human. Particulars: for hMSC yield: BIO at concentrations greater than 400 nM, GW at tested doses; for cleaved caspase-3 (Asp175) immunoblot: whole cell extracts of treated hMSCs. The procedure:
Cell cycle. Profiles were generated by fluorescence activated cell sorting and analyzed with software. Protein extraction, gel electrophoresis and western blotting. Nuclear extracts were performed by Triton extraction and differential centrifugation as previously described (Gregory et al., 2003, J Biol Chem 278:2806728078). Proteins were electrophoresed and blotted onto nitrocellulose using an electrophoresis system.
In general terms: In western blotting, separated proteins are transferred to a membrane and probed.

For data set [6], the system named is hMSCs. Kind of data set: Late stage osteogenesis, Alizarin Red S (ARS) staining. The data set is classed as cell-based, human. The following applies: for dex-induced biomineralization with simultaneous treatment: 17 days with β-GP, ascorbate and dex; for dex-induced mineralization after pre-treatment: BIO 200 and 800 nM, GW 1.0 and 10.0 μM for 8 days, then 15 days with dex; for biomineralization in the absence of dex: extended incubation. The procedure: Late stage osteogenesis and ARS staining. Mature osteogenic assays were performed in 6 well format as previously described (Gregory et al., 2004, Anal Biochem 329:77-84).
Effect of GSK3β and PPARγ inhibition on late stage osteogenesis. […] Initially, experiments were conducted to examine whether pre-treatment of hMSCs with inhibitors BIO (200 and 800 nM) and GW (1.0 and 10.0 μM) in the presence of β-glycerophosphate (β-GP) and ascorbate for 8 days followed by 15 days in the same media supplemented with dex affected mineralization of the cultures. If BIO or GW function to accelerate the cells through the immature stages of osteogenesis and partially to maturity, hMSCs exposed to these conditions would be expected to respond more rapidly to the steroid-dependent mature osteoblast transition. After differentiation, calcium content was visualized by Alizarin Red S (ARS) staining and the dye was extracted and quantified. At the doses tested, and in a dose-dependent manner, BIO and GW enhanced dex-induced differentiation into biomineralizing osteoblasts (FIG. 21).
The next experiments were performed to examine whether withdrawal of the Wnt stimulus caused by BIO and GW was necessary for the hMSCs to progress to a dex-dependent biomineralizing phenotype. Human MSCs were pre-cultured with BIO and GW in the presence of f3-GP, ascorbate and dex for 17 days. […] Clotted human plasma is a biocompatible and osteoinductive vector for administration of hMSCs

For data set [7], the system named is calvarial defects. Kind of data set: Calvarial defect repair, 50 days (x-ray radio-opacity). The data set is classed as in vivo, nude mice. The following applies: for repair of cranial lesions (radio-opacity ratio lesioned/contralateral): day 50, 1×10^6 pretreated hMSCs in plasma, further doses day 14, 28, 42. The procedure:
Calvarial lesions. MSCs were cultured in the presence of osteogenic base media containing the appropriate inhibitor or vehicle. After 8 days, they were suspended in human plasma and administered to nude mice that had received a circular lesion in the cranium. Subsequent doses of cells were administered by direct injection in plasma/thromboplastin mix.
X-ray imaging and quantification. Cranial bones were imaged by x-ray under anaesthesia. Digital images were be captured on a digital plate and processed on a phosphorimager reader and processed by volume analysis software.
Effects of GSKβ and PPARγ inhibition on repair of an induced cranial defect in mice. Given that BIO and GW accelerated osteogenic differentiation by human MSCs in vitro, experiments were conducted to test whether the treated hMSCs could repair a critical bone defect in vivo. Human MSCs were cultured in the presence of osteogenic medium lacking dex, but containing BIO (200 and 800 nM) or GW (1.0 and 10.0 μM). Calvarial lesions were generated in nude mice and 1×10^6 hMSCs, mixed with human plasma were applied followed by thromboplastin to initiate gelling. The scalp was sutured and the animals were allowed to heal. Initially, short-duration experiments were performed to monitor distribution of the hMSCs, and to ensure the cells had survived the implantation process. GFP-labeled hMSCs were administered and mice were sacrificed after 24 h. Upon histological analysis, a substantial number of GFP-labeled, healthy hMSCs had formed a thick layer over the injury and adjacent bone tissue (FIG. 24A, 24B). The hMSCs could be readily detected with an antibody for membrane localized human β-2 microglobulin (FIG. 24C, 24D). Robust antibody-detection of unmanipulated hMSCs, rather than lentiviral labeling was favored in long term experiments because very low passage hMSCs could be utilized, rather than genetically tagged preparations that had undergone a number of passages. Long term experiments were performed for 50 days with further doses of hMSCs administered at day 14, 28 and 42 by direct injection of a plasma:hMSC mixture under the scalp (FIG. 25A). At day 50, the crania were explanted and x-ray images of the calvarial lesions were taken. The digitized images were then analysed densitometrically to quantify the degree of bone accrual (FIG. 25B). The lesioned side was compared with the contralateral side and data were expressed as the ratio of radio-opacity on the lesioned side to the contralateral side. […] When the sections were stained with anti-β-2 microglobulin, isolated clusters of hMSCs from only control and GW groups were detected (FIGS. 27C and 27D).

“Also recorded” adds a separate entry of the source.

Consider `O=C(Nc1ccccc1)c1cc([N+](=O)[O-])ccc1Cl` [GW9662, 2-chloro-5-nitro-N-phenyl-benzamide], for which, in data set [1], the “transcript transducin-like enhancer of split-1” value is reported as “down-regulated”; the “transcripts Klf-6, caldesmon-1, gamma-aminobutyric acid B receptor-2, synaptotagmin like-2” value is “significantly up-regulated”; the “transcripts fibroblast growth factor-7, high mobility group AT-hook 2, Cdk5 and Abl enzyme substrate-1, amyloid beta precursor protein-binding family B2” value is “significantly up-regulated”; the “transcripts protocadherin-7, PR domain containing-1, gremlin-1, collectin subfamily member-12, stanniocalcin-2” value is “no change”. Besides, in data set [1], the “collagens and ECM proteins found in bone tissue (transcripts)” value is listed as “up-regulated”. For the same compound, the “inflammatory mediator genes (IL1, IL8, CXCL chemokines)” value in data set [1] (vs control) was “profoundly down-regulated”. Also, in data set [2], the “dose of maximal stimulation of OPG secretion” value is 0.5 µM. Further, the Dkk-1 secretion result in data set [3] is reported as “reduced”. Also, in data set [4], the “nuclear levels of PPARγ” value was “reduced”, the “GSK3β in the cytoplasm” value is listed as “depletion” and the “nuclear β-catenin” value is reported as “increased levels”. In data set [5], the hMSC yield result is “without reduction in cellular yield” and the “cleaved caspase-3 (Asp175) immunoblot” value is on record as “no evidence of caspase 3 processing”. Besides, in data set [6], the “dex-induced biomineralization with simultaneous treatment” value is on record as “enhanced dex-induced biomineralization”, the “dex-induced mineralization after pre-treatment” value was “enhanced” and the “biomineralization in the absence of dex” value is “did not induce biomineralization”. For the same compound, the “improvement in healing compared with controls” value in data set [7] (MSCs treated with GW9662 applied to calvaria bone defect) is listed as 2-3 fold. Also, in data set [7] (after 50 days of repeated cell administration), the lesion healing entry is “about 60%”. In data set [7] (listed as GW), the “repair of cranial lesions (radio-opacity ratio lesioned/contralateral)” value is given as “significantly improved; also recorded: profoundly improved healing”.
Turning to `O=C1Nc2cc(Br)ccc2/C1=C1/Nc2ccccc2/C1=N\O` [BIO, bromo-indirubin-3′-mono-oxime], in data set [1], the “transcript transducin-like enhancer of split-1” value is given as “down-regulated”; the “transcripts Klf-6, caldesmon-1, gamma-aminobutyric acid B receptor-2, synaptotagmin like-2” value is listed as “significantly up-regulated”; the “transcripts fibroblast growth factor-7, high mobility group AT-hook 2, Cdk5 and Abl enzyme substrate-1, amyloid beta precursor protein-binding family B2” value was “no change”; the “transcripts protocadherin-7, PR domain containing-1, gremlin-1, collectin subfamily member-12, stanniocalcin-2” value is reported as “significantly up-regulated”. Also, in data set [1], the “collagens and ECM proteins found in bone tissue (transcripts)” value was “up-regulated”. Further, the “secretion of OPG” value in data set [2] was “rose in a dose dependent manner”. Besides, in data set [3], the Dkk-1 secretion entry is given as “reduced”. In addition, in data set [4], the “nuclear levels of PPARγ” value is on record as “reduced”, the “GSK3β in the cytoplasm” value was “depletion” and the “nuclear β-catenin” value is listed as “increased levels”. In addition, in data set [5] (800 nM BIO, 8 days), the cell cycle effect result is reported as “inhibit mitosis”. For the same compound, in data set [5], the hMSC yield entry is recorded as “substantial reduction” and the “cleaved caspase-3 (Asp175) immunoblot” value was “no evidence of caspase 3 processing”. Also, in data set [6], the “dex-induced biomineralization with simultaneous treatment” value is on record as “enhanced dex-induced biomineralization”, the “dex-induced mineralization after pre-treatment” value is “enhanced” and the “biomineralization in the absence of dex” value is on record as “did not induce biomineralization”. Further, in data set [7], the “repair of cranial lesions (radio-opacity ratio lesioned/contralateral)” value is recorded as “no significant sign of bone repair”.
